Measured values published in patent US6967215B2, “Tetrahydrocarbazoles, a process for the preparation of those compounds, and the use thereof” (Ciba Specialty Chemicals Corporation, priority 2000, dated 2005).

Key:
Assay in all cases: MIC, microtitre dilution test (growth by optical density at 620 nm)
[1] = test system: Escherichia coli NCTC 8196; assay type: cell-based; conditions: Table 5
Procedure: (§1) Casein/soybean flour peptone bouillon for the preparation of pre-cultures of the test bacteria and yeast.
(§2) The test substances are predissolved in dimethyl sulfoxide (DMSO) and tested in a dilution series of 1:2.
(§3) Bacteria and yeast are cultured overnight in CASO bouillon, the mould is cultured overnight on mycological slant agar, and washed off with 10 ml of 0.85% sodium chloride solution (+0.1% TritonX-100).
(§4) All the test organisms are adjusted to an organism count of 1-5×10^6 CFU/ml using 0.85% sodium chloride solution.
(§5) The test substances are pre-pipetted into microtitre plates in an amount of 8 μl per well.
(§6) Pre-diluted organism suspensions are diluted 1:100 in CASO bouillon (bacteria and yeast) or Sabouraud 2% glucose bouillon (mould) and are added in an amount of 192 μl per well to the test substances.
(§7) The test batches are incubated for 48 hours at 37° C. (bacteria and yeast) or for 5 days at 28° C. (mould).
(§8) After incubation, the growth is evaluated by reference to the turbidity of the test batches (optical density) at 620 nm in a microplate reader.
(§9) The minimum inhibitory concentration (MIC value) is the concentration of substance at which (compared with the growth of the control) an appreciable inhibition of growth (≦20% growth) of the test organisms is ascertained.
(§10) One microtitre plate is used for each test organism and substance concentration. All the substances are tested in duplicate.

[2] = test system: Staphylococcus hominis DMS 20328; assay type: cell-based; conditions: for MIC [ppm] S. hominis: Table 5
Procedure: as §1, §2, §3, §4, §5, §6, §7, §8, §9, §10

[3] = test system: Aspergillus niger ATCC 6175; assay type: cell-based; conditions: for MIC [ppm] A. niger: Table 5
Procedure: (§11) Nutrient: Mycological slant agar for the pre-culture of moulds [table] The test substances are predissolved in dimethyl sulfoxide (DMSO) and tested in a dilution series of 1:2. Bacteria and yeast are cultured overnight in CASO bouillon, the mould is cultured overnight on mycological slant agar, and washed off with 10 ml of 0.85% sodium chloride solution (+0.1% TritonX-100). All the test organisms are adjusted to an organism count of 1-5×10^6 CFU/ml using 0.85% sodium chloride solution. The test substances are pre-pipetted into microtitre plates in an amount of 8 μl per well. Pre-diluted organism suspensions are diluted 1:100 in CASO bouillon (bacteria and yeast) or Sabouraud 2% glucose bouillon (mould) and are added in an amount of 192 μl per well to the test substances. The test batches are incubated for 48 hours at 37° C. (bacteria and yeast) or for 5 days at 28° C. (mould). After incubation, the growth is evaluated by reference to the turbidity of the test batches (optical density) at 620 nm in a microplate reader. The minimum inhibitory concentration (MIC value) is the concentration of substance at which (compared with the growth of the control) an appreciable inhibition of growth (≦20% growth) of the test organisms is ascertained. One microtitre plate is used for each test organism and substance concentration. All the substances are tested in duplicate.

[4] = test system: P. aeruginosa; assay type: cell-based; conditions: Table 5
Procedure: as §11, with “All” for “Nutrient: Mycological slant agar for the pre-culture of moulds [table] The test substances are predissolved in dimethyl sulfoxide (DMSO) and tested in a dilution series of 1:2. Bacteria and yeast are cultured overnight in CASO bouillon, the mould is cultured overnight on mycological slant agar, and washed off with 10 ml of 0.85% sodium chloride solution (+0.1% TritonX-100). All”

[5] = test system: Actinomyces viscosus DSM 43329; assay type: cell-based; conditions: Table 4
Procedure: as §1, §2, §3, §4, §5, §6, §7, §8, §9, §10

[6] = test system: Candida albicans ATCC 10259; assay type: cell-based
Procedure: as §1, §2, §3, §4, §5, §6, §7, §8, §9, §10

[7] = test system: Corynebacterium xerosis ATCC 373; assay type: cell-based
Procedure: as §1, §2, §3, §4, §5, §6, §7, §8, §9, §10

[8] = test system: Enterococcus hirae ATCC 10541; assay type: cell-based
Procedure: as §1, §2, §3, §4, §5, §6, §7, §8, §9, §10

[9] = test system: Micrococcus luteus ATCC 9341; assay type: cell-based
Procedure: as §1, §2, §3, §4, §5, §6, §7, §8, §9, §10

[10] = test system: P. ovale ATCC 14521; assay type: cell-based; conditions: Table 4
Procedure: as §1, §2, §3, §4, §5, §6, §7, §8, §9, §10

[11] = test system: Porphyromonas gingivalis DSM 20709; assay type: cell-based; conditions: Table 4
Procedure: as §1, §2, §3, §4, §5, §6, §7, §8, §9, §10

[12] = test system: Propionibacterium acnes ATCC 25746; assay type: cell-based; conditions: Table 4
Procedure: as §1, §2, §3, §4, §5, §6, §7, §8, §9, §10

[13] = test system: Selenomonas artemidis ATCC 43528; assay type: cell-based; conditions: Table 4
Procedure: as §1, §2, §3, §4, §5, §6, §7, §8, §9, §10

[14] = test system: Staphylococcus aureus (methicillin-resistant) NCTC 11940; assay type: cell-based; conditions: Table 4
Procedure: as §1, §2, §3, §4, §5, §6, §7, §8, §9, §10

[15] = test system: Staphylococcus aureus (methicillin-resistant) NCTC 12493; assay type: cell-based; conditions: Table 4
Procedure: as §1, §2, §3, §4, §5, §6, §7, §8, §9, §10

[16] = test system: Staphylococcus aureus (penicillin-resistant) NCTC 10443; assay type: cell-based; conditions: Table 4
Procedure: as §1, §2, §3, §4, §5, §6, §7, §8, §9, §10

[17] = test system: Staphylococcus aureus (rifampicin-resistant) NCTC 10703; assay type: cell-based; conditions: Table 4
Procedure: as §1, §2, §3, §4, §5, §6, §7, §8, §9, §10

[18] = test system: Staphylococcus epidermidis ATCC 12228; assay type: cell-based; conditions: for MIC Staphylococcus epidermidis ATCC 12228: Table 3
Procedure: as §1, §2, §3, §4, §5, §6, §7, §8, §9, §10

[19] = test system: Streptococcus mutans ATCC 25175; assay type: cell-based; conditions: Table 4
Procedure: as §1, §2, §3, §4, §5, §6, §7, §8, §9, §10

[20] = test system: Streptococcus sobrinus DSM 20742; assay type: cell-based; conditions: Table 4
Procedure: as §1, §2, §3, §4, §5, §6, §7, §8, §9, §10

[21] = test system: Epidermophyton floccosum DSM 10709; assay type: cell-based; conditions: Table 4
Procedure: as §11

[22] = test system: Tr. mentagrophytes ATCC 9533; assay type: cell-based; conditions: Table 4
Procedure: as §11

[23] = test system: Trichoderma longibrachiatum DSM 768; assay type: cell-based; conditions: Table 4
Procedure: as §11

[24] = test system: Trichophyton rubrum DSM 4167; assay type: cell-based; conditions: Table 4
Procedure: as §11

[25] = test system: Staphylococus aureus ATCC 9144; assay type: cell-based, Staphylococcus aureus; conditions: Table 4
Procedure: as §11, with “All” for “Nutrient: Mycological slant agar for the pre-culture of moulds [table] The test substances are predissolved in dimethyl sulfoxide (DMSO) and tested in a dilution series of 1:2. Bacteria and yeast are cultured overnight in CASO bouillon, the mould is cultured overnight on mycological slant agar, and washed off with 10 ml of 0.85% sodium chloride solution (+0.1% TritonX-100). All”

Structure (SMILES): CCCN1CCC2c3c([nH]c4cccc(Cl)c34)C3C(=O)NC(=O)C3C2C1 (centres unmarked) [Compound 224]
- MIC [ppm] E. coil [1]: >120 ppm
- MIC [ppm] S. hominis [2]: >120 ppm
- MIC [ppm] A. niger [3]: >120 ppm
- MIC [ppm] P. aeruginosa [4]: 120 ppm

Structure (SMILES): CCCN1CCC2c3c([nH]c4cccc(F)c34)C3C(=O)NC(=O)C3C2C1 (centres unmarked) [Compound 226]
- MIC [ppm] E. coil [1]: 120 ppm
- MIC [ppm] S. hominis [2]: 120 ppm
- MIC [ppm] A. niger [3]: >120 ppm
- MIC [ppm] P. aeruginosa [4]: >120 ppm

Structure (SMILES): CCCN1CCC2c3c([nH]c4c(OC)cccc34)C3C(=O)NC(=O)C3C2C1 (centres unmarked) [Compound 229]
- MIC [ppm] E. coil [1]: >120 ppm
- MIC [ppm] S. hominis [2]: >120 ppm
- MIC [ppm] A. niger [3]: >120 ppm
- MIC [ppm] P. aeruginosa [4]: >120 ppm

Structure (SMILES): CCCN1CCC2c3c([nH]c4cc(OC)ccc34)C3C(=O)NC(=O)C3C2C1 (centres unmarked) [Compound 231]
- MIC [ppm] E. coil [1]: >120 ppm
- MIC [ppm] S. hominis [2]: 120 ppm
- MIC [ppm] A. niger [3]: >120 ppm
- MIC [ppm] P. aeruginosa [4]: 120 ppm

Structure (SMILES): CCCN1CCC2c3c([nH]c4ccc(C(=O)OC)cc34)C3C(=O)NC(=O)C3C2C1 (centres unmarked) [Compound 235]
- MIC [ppm] E. coil [1]: >120 ppm
- MIC [ppm] S. hominis [2]: 120 ppm
- MIC [ppm] A. niger [3]: >120 ppm
- MIC [ppm] P. aeruginosa [4]: >120 ppm

Structure (SMILES): CCCN1CCC2c3c([nH]c4cc(OC)c(OC)cc34)C3C(=O)NC(=O)C3C2C1 (centres unmarked) [Compound 238]
- MIC [ppm] E. coil [1]: >120 ppm
- MIC [ppm] S. hominis [2]: >120 ppm
- MIC [ppm] A. niger [3]: >120 ppm
- MIC [ppm] P. aeruginosa [4]: >120 ppm

Structure (SMILES): O=C1NC(=O)C2C1c1[nH]c3ccc(Br)cc3c1C1CCCCCC12 (centres unmarked) [compound 32]
- MIC Actinomyces viscosus DSM 43329 [5]: 6.25 ppm
- MIC Candida albicans ATCC 10259 ([6]; Table 4): >10 ppm
- MIC Corynebacterium xerosis ATCC 373 ([7]; Table 4): 5.0 ppm
- MIC Enterococcus hirae ATCC 10541 ([8]; Table 4): >10 ppm
- MIC Micrococcus luteus ATCC 9341 ([9]; Table 4): 5.0 ppm
- MIC P. ovale ATCC 14521 [10]: >10 ppm
- MIC Porphyromonas gingivalis DSM 20709 [11]: 3.125 ppm
- MIC Propionibacterium acnes ATCC 25746 [12]: 6.25 ppm
- MIC Selenomonas artemidis ATCC 43528 [13]: 50.0 ppm
- MIC Staphylococcus aureus (methicillin-resistant) NCTC 11940 [14]: 5.0 ppm
- MIC Staphylococcus aureus (methicillin-resistant) NCTC 12493 [15]: 5.0 ppm
- MIC Staphylococcus aureus (penicillin-resistant) NCTC 10443 [16]: 5.0 ppm
- MIC Staphylococcus aureus (rifampicin-resistant) NCTC 10703 [17]: 5.0 ppm
- MIC S. epidermidis ATCC 12228 ([18]; Table 4): 10 ppm
- MIC Staphylococcus hominis DSM 20328 ([2]; Table 4): 5.0 ppm
- MIC Streptococcus mutans ATCC 25175 [19]: 5.0 ppm
- MIC Streptococcus sobrinus DSM 20742 [20]: 6.25 ppm
- MIC Aspergillus niger ATCC 6175 ([3]; Table 4): >10 ppm
- MIC Epidermophyton floccosum DSM 10709 [21]: 5.0 ppm
- MIC Tr. mentagrophytes ATCC 9533 [22]: 10 ppm
- MIC Trichoderma longibrachiatum DSM 768 [23]: >10 ppm
- MIC Trichophyton rubrum DSM 4167 [24]: 10 ppm
- MIC Staphylococus aureus ATCC 9144 [25]: 5.0 ppm

Structure (SMILES): CC1(C)CC2c3c([nH]c4ccccc34)C3C(=O)NC(=O)C3C2C(C)(C)C1 (centres unmarked) [compound 63]
- MIC Candida albicans ATCC 10259 ([6]; Table 3): >120 ppm
- MIC Corynebacterium xerosis ATCC 373 ([7]; Table 3): ≦3.75 ppm
- MIC Enterococcus hirae ATCC 10541 ([8]; Table 3): 7.5 ppm
- MIC Micrococcus luteus ATCC 9341 ([9]; Table 3): ≦3.75 ppm
- MIC Staphylococcus epidermidis ATCC 12228 [18]: ≦3.75 ppm
- MIC Staphylococcus hominis DSM 20328 ([2]; Table 3): 7.5 ppm

Structure (SMILES): CCc1cccc2c3c([nH]c12)C1C(=O)NC(=O)C1C1CCCCCCC31 (centres unmarked) [compound 89]
- MIC Candida albicans ATCC 10259 ([6]; Table 3): >120 ppm
- MIC Corynebacterium xerosis ATCC 373 ([7]; Table 3): ≦3.75 ppm
- MIC Enterococcus hirae ATCC 10541 ([8]; Table 3): >120 ppm
- MIC Micrococcus luteus ATCC 9341 ([9]; Table 3): ≦3.75 ppm
- MIC Staphylococcus epidermidis ATCC 12228 [18]: ≦3.75 ppm
- MIC Staphylococcus hominis DSM 20328 ([2]; Table 3): 7.5 ppm
